The text below walks through data of ChEMBL document CHEMBL3120136 (J Med Chem, 2014).

Test [1] has as its system Hepatitis C virus. The experiment in a line: Antiviral activity against Hepatitis C virus infected in human HuH7 cells assessed as inhibition of HCV subgenomic replicon replication after 72 hrs by ELISA. The class given is functional, organism-based, Hepacivirus hominis, Huh-7. The conditions noted are these: Hepatitis C virus, Huh-7, 72 h; read-out: EC50. On the technique in general: Replicon systems follow genome replication, usually without infectious particles.

A short description of test [2]: Inhibition of Hepatitis C virus full-length NS3/4A protease assessed as quenched-fluorogenic RET-S1 substrate cleavage incubated for 10 mins prior to substrate addition by FRET analysis. Also noted: species or system Hepacivirus hominis.

The structures appear in SMILES notation. *1 amine or outer side, *2 acyl side, *3 side chain or, on linkers, in order; H or OH if unused. Where a SMILES comes first, the peptide text is derived from it. Side-chain parts run from the residue outwards. [ ]: non-standard residue; d: D form. The star is where a group is joined. Ac3c(1R,2S-2-vinyl) = C=C[C@@H]1C[C@]1(N)C(=O)O; NH(1-naphthylmethyl) = c1ccc2c(CN*)cccc2c1; NH(1-naphthyl) = c1ccc2c(N*)cccc2c1; Hyp = O=C(O)[C@@H]1C[C@@H](O)CN1; Chg = N[C@H](C(=O)O)C1CCCCC1; X2 = c1ccc(C2CN(*)CCO2)cc1; X3 = c1ccc(C2CCN(*)C2)cc1; Morpholide = C1CN(*)CCO1; Piperidide = C1CCN(*)CC1; Pyrrolidide = C1CCN(*)C1; X4 = c1ccc(C2COCCN2*)cc1; X5 = c1ccc2c(c1)CN(*)C2; X1 = c1ccc2c(c1)CCN2*; CO = O=C([*:1])[*:2]

Turning to `CC(C)(C)OC(=O)N[C@H]1CCCCC/C=C\[C@@H]2C[C@@]2(C(=O)NS(=O)(=O)C2CC2)NC(=O)[C@@H]2C[C@@H](NS(=O)(=O)c3cccc4ccccc34)CN2C1=O`, the EC50 (usually the midpoint of the concentration-response curve) in test [1] was greater than 10000 nM. Further, the IC50 (in general, the concentration needed to halve the response being measured) in test [2] amounted to 470 nM. The like results for `CC(C)(C)OC(=O)N[C@H]1CCCCC/C=C\[C@@H]2C[C@@]2(C(=O)NS(=O)(=O)C2CC2)NC(=O)[C@@H]2C[C@@H](NC(=S)N3CCc4ccccc4C3)CN2C1=O` were, in that order, 365 nM and 8.2 nM. The like results for `CC(C)(C)OC(=O)N[C@H]1CCCCC/C=C\[C@@H]2C[C@@]2(C(=O)NS(=O)(=O)C2CC2)NC(=O)[C@@H]2C[C@@H](Nc3nc4ccccc4o3)CN2C1=O` were, in that order, 730 nM and 21 nM. Taken in the same sequence, the figures for `CC(C)(C)OC(=O)N[C@H]1CCCCC/C=C\[C@@H]2C[C@@]2(C(=O)NS(=O)(=O)C2CC2)NC(=O)[C@@H]2C[C@@H](NC(=O)c3cc4ccccc4s3)CN2C1=O` were 21 nM and 1.4 nM. As for `CC(C)(C)OC(=O)N[C@H]1CCCCC/C=C\[C@@H]2C[C@@]2(C(=O)NS(=O)(=O)C2CC2)NC(=O)[C@@H]2C[C@@H](NC(=O)c3sc4cccc(Cl)c4c3Cl)CN2C1=O`, the EC50 in test [1] was 9.5 nM. Besides, the half-maximal inhibitory concentration (IC50) in test [2] worked out at 1.4 nM.

Regarding `CC(C)(C)OC(=O)N[C@H]1CCCCC/C=C\[C@@H]2C[C@@]2(C(=O)NS(=O)(=O)C2CC2)NC(=O)[C@@H]2C[C@@H](NC(=O)c3nc4ccccc4s3)CN2C1=O`, in test [1], the concentration for a half-maximal effect (EC50) came to 13 nM. For the same compound, the IC50 in test [2] came out at 3.5 nM. Taken in the same sequence, the figures for `CC(C)(C)OC(=O)N[C@H]1CCCCC/C=C\[C@@H]2C[C@@]2(C(=O)NS(=O)(=O)C2CC2)NC(=O)[C@@H]2C[C@@H](NC(=O)c3nc4cc(Cl)ccc4s3)CN2C1=O` were 126 nM and 5.2 nM.

Take `CC(C)(C)OC(=O)N[C@H]1CCCCC/C=C\[C@@H]2C[C@@]2(C(=O)NS(=O)(=O)C2CC2)NC(=O)[C@@H]2C[C@@H](NC(=O)c3nc4ccccc4[nH]3)CN2C1=O`: in test [1], the EC50 was found to be 614 nM. In addition, the IC50 in test [2] amounted to 6.4 nM. Taken in the same sequence, the figures for `CC(C)(C)OC(=O)N[C@H]1CCCCC/C=C\[C@@H]2C[C@@]2(C(=O)NS(=O)(=O)C2CC2)NC(=O)[C@@H]2C[C@@H](O)CN2C1=O` were 2130 nM and 75 nM. On to `CO[C@@H]1C[C@H]2C(=O)N[C@]3(C(=O)NS(=O)(=O)C4CC4)C[C@H]3/C=C\CCCCC[C@H](NC(=O)OC(C)(C)C)C(=O)N2C1`, for which, in test [1], the EC50 was 6300 nM. Moreover, the IC50 in test [2] was found to be 220 nM. The like results for `CC(=O)O[C@@H]1C[C@H]2C(=O)N[C@]3(C(=O)NS(=O)(=O)C4CC4)C[C@H]3/C=C\CCCCC[C@H](NC(=O)OC(C)(C)C)C(=O)N2C1` were, in that order, 3910 nM and 12 nM. The like results for `N[C@H]1CCCCC/C=C\[C@@H]2C[C@@]2(C(=O)NS(=O)(=O)C2CC2)NC(=O)[C@@H]2C[C@@H](OC(=O)N3Cc4cccc(F)c4C3)CN2C1=O` were, in that order, 3050 nM and 20 nM. Taken in the same sequence, the figures for `N[C@H]1CCCCC/C=C\[C@@H]2C[C@@]2(C(=O)NS(=O)(=O)C2CC2)NC(=O)[C@@H]2C[C@@H](OC(=O)N3Cc4cccc(Cl)c4C3)CN2C1=O` were 150 nM and 3 nM. With `CC(C)(C)OC(=O)N[C@H]1CCOCCCC[C@@H]2C[C@@]2(C(=O)NS(=O)(=O)C2CC2)NC(=O)[C@@H]2C[C@@H](OC(=O)N3Cc4cccc(F)c4C3)CN2C1=O`, the 50% effective concentration (EC50) in test [1] came out at 19 nM. Besides, in test [2], the IC50 stood at 0.7 nM.

In the case of `CC(C)(C)OC(=O)N[C@H]1CCCOCCC[C@@H]2C[C@@]2(C(=O)NS(=O)(=O)C2CC2)NC(=O)[C@@H]2C[C@@H](OC(=O)N3Cc4cccc(F)c4C3)CN2C1=O`, in test [1], the EC50 was 254 nM. Also, in test [2], the IC50 was 1 nM. With `CC(C)(C)OC(=O)N[C@H]1CCC(F)(F)CC/C=C\[C@@H]2C[C@@]2(C(=O)NS(=O)(=O)C2CC2)NC(=O)[C@@H]2C[C@@H](OC(=O)N3Cc4cccc(F)c4C3)CN2C1=O`, the EC50 in test [1] is 7.2 nM. Further, in test [2], the IC50 came out at 1.5 nM. As to `CC(C)(C)OC(=O)N[C@H]1CCCC(F)(F)C/C=C\[C@@H]2C[C@@]2(C(=O)NS(=O)(=O)C2CC2)NC(=O)[C@@H]2C[C@@H](OC(=O)N3Cc4cccc(F)c4C3)CN2C1=O`, the EC50 in test [1] stood at 44 nM. For the same compound, the IC50 in test [2] was 0.5 nM. Taken in the same sequence, the figures for `CC(C)(C)OC(=O)N[C@H]1CCNCC/C=C\[C@@H]2C[C@@]2(C(=O)NS(=O)(=O)C2CC2)NC(=O)[C@@H]2C[C@@H](OC(=O)N3Cc4cccc(F)c4C3)CN2C1=O` were 1830 nM and 9.7 nM. Consider `CC(C)(C)OC(=O)N[C@H]1CCN(CC(F)(F)F)CC/C=C\[C@@H]2C[C@@]2(C(=O)NS(=O)(=O)C2CC2)NC(=O)[C@@H]2C[C@@H](OC(=O)N3Cc4cccc(F)c4C3)CN2C1=O`, for which, in test [1], the EC50 is 24 nM. For the same compound, the IC50 in test [2] was found to be 1.8 nM.

Consider `CN1CC/C=C\[C@@H]2C[C@@]2(C(=O)NS(=O)(=O)C2CC2)NC(=O)[C@@H]2C[C@@H](OC(=O)N3Cc4cccc(F)c4C3)CN2C(=O)[C@@H](NC(=O)OC(C)(C)C)CC1`, for which the EC50 in test [1] is 837 nM. Further, the IC50 in test [2] was 7 nM.

For `CC(C)(C)OC(=O)N[C@H]1CCC(F)(F)CCCC[C@@H]2C[C@@]2(C(=O)NS(=O)(=O)C2CC2)NC(=O)[C@@H]2C[C@@H](OC(=O)N3Cc4cccc(F)c4C3)CN2C1=O`, the EC50 in test [1] was 6.8 nM. In addition, the IC50 in test [2] came out at 0.8 nM. Taken in the same sequence, the figures for `CC(C)(C)OC(=O)N[C@H]1CCCC(F)(F)CCC[C@@H]2C[C@@]2(C(=O)NS(=O)(=O)C2CC2)NC(=O)[C@@H]2C[C@@H](OC(=O)N3Cc4cccc(F)c4C3)CN2C1=O` were 46 nM and 1.3 nM. Taken in the same sequence, the figures for `CC(C)(C)OC(=O)N[C@H]1CCCCC/C=C\[C@@H]2C[C@@]2(C(=O)NS(=O)(=O)C2CC2)NC(=O)[C@@H]2C[C@@H](NC(=O)N3CCc4ccccc4C3)CN2C1=O` were 362 nM and 2.9 nM. Taken in the same sequence, the figures for `CC(C)(C)OC(=O)N[C@H]1CCCCC/C=C\[C@@H]2C[C@@]2(C(=O)NS(=O)(=O)C2CC2)NC(=O)[C@@H]2C[C@@H](NC(=O)N3Cc4ccccc4C3)CN2C1=O` were 47 nM and 2.3 nM. Regarding `CC(C)(C)OC(=O)N[C@H]1CCCOC/C=C\[C@@H]2C[C@@]2(C(=O)NS(=O)(=O)C2CC2)NC(=O)[C@@H]2C[C@@H](OC(=O)N3Cc4cccc(F)c4C3)CN2C1=O`, in test [1], the EC50 came out at 155 nM. The IC50 in test [2] came out at 0.8 nM. The like results for `CC(C)(C)OC(=O)N[C@H]1COCCCCC[C@@H]2C[C@@]2(C(=O)NS(=O)(=O)C2CC2)NC(=O)[C@@H]2C[C@@H](OC(=O)N3Cc4cccc(F)c4C3)CN2C1=O` were, in that order, 12.4 nM and 1.2 nM.

`O=C(N[C@H]1CCCCC/C=C\[C@@H]2C[C@@]2(C(=O)NS(=O)(=O)C2CC2)NC(=O)[C@@H]2C[C@@H](OC(=O)N3CCc4ccccc4C3)CN2C1=O)OC1CCCC1`: the EC50 in test [1] worked out at 6 nM. In test [2], the IC50 is 1 nM. For the compound `C=C[C@@H]1C[C@]1(NC(=O)[C@@H]1C[C@@H](OC(=O)N2CCOCC2)CN1C(=O)[C@@H](NC(=O)[C@@H](NC(C)=O)C1CCCCC1)C(C)C)C(=O)O` (Ac-[Chg]V[Hyp]([CO-Morpholide])[Ac3c(1R,2S-2-vinyl)]-OH), the IC50 in test [2] came out at 47100 nM. The same measure, in the same setting: in the case of `C=C[C@@H]1C[C@]1(NC(=O)[C@@H]1C[C@@H](OC(=O)Nc2cccc3ccccc23)CN1C(=O)[C@@H](NC(=O)[C@@H](NC(C)=O)C1CCCCC1)C(C)C)C(=O)O` (Ac-[Chg]V[Hyp]([CO-NH(1-naphthyl)])[Ac3c(1R,2S-2-vinyl)]-OH) it was 818 nM; in that of `C=C[C@@H]1C[C@]1(NC(=O)[C@@H]1C[C@@H](OC(=O)NCc2cccc3ccccc23)CN1C(=O)[C@@H](NC(=O)[C@@H](NC(C)=O)C1CCCCC1)C(C)C)C(=O)O` (Ac-[Chg]V[Hyp]([CO-NH(1-naphthylmethyl)])[Ac3c(1R,2S-2-vinyl)]-OH), 835 nM; in that of `C=C[C@@H]1C[C@]1(NC(=O)[C@@H]1C[C@@H](OC(=O)N2CCCCC2)CN1C(=O)[C@@H](NC(=O)[C@@H](NC(C)=O)C1CCCCC1)C(C)C)C(=O)O` (Ac-[Chg]V[Hyp]([CO-Piperidide])[Ac3c(1R,2S-2-vinyl)]-OH), 4290 nM. Still for that read-out and setting: in the case of `C=C[C@@H]1C[C@]1(NC(=O)[C@@H]1C[C@@H](OC(=O)N2CCCC2)CN1C(=O)[C@@H](NC(=O)[C@@H](NC(C)=O)C1CCCCC1)C(C)C)C(=O)O` (Ac-[Chg]V[Hyp]([CO-Pyrrolidide])[Ac3c(1R,2S-2-vinyl)]-OH) it was 14900 nM; in that of `C=C[C@@H]1C[C@]1(NC(=O)[C@@H]1C[C@@H](OC(=O)N2CCc3ccccc32)CN1C(=O)[C@@H](NC(=O)[C@@H](NC(C)=O)C1CCCCC1)C(C)C)C(=O)O` (Ac-[Chg]V[Hyp]([CO-X1])[Ac3c(1R,2S-2-vinyl)]-OH), 200 nM. For `C=C[C@@H]1C[C@]1(NC(=O)[C@@H]1C[C@@H](OC(=O)N2CCOC(c3ccccc3)C2)CN1C(=O)[C@@H](NC(=O)[C@@H](NC(C)=O)C1CCCCC1)C(C)C)C(=O)O` (stereo partly drawn) (Ac-[Chg]V[Hyp]([CO-X2])[Ac3c(1R,2S-2-vinyl)]-OH), in test [2], the IC50 is 4770 nM. On the same count and under the same terms, then `C=C[C@@H]1C[C@]1(NC(=O)[C@@H]1C[C@@H](OC(=O)N2CCC(c3ccccc3)C2)CN1C(=O)[C@@H](NC(=O)[C@@H](NC(C)=O)C1CCCCC1)C(C)C)C(=O)O` (stereo partly drawn) (Ac-[Chg]V[Hyp]([CO-X3])[Ac3c(1R,2S-2-vinyl)]-OH), with 735 nM; and `C=C[C@@H]1C[C@]1(NC(=O)[C@@H]1C[C@@H](OC(=O)N2CCOCC2c2ccccc2)CN1C(=O)[C@@H](NC(=O)[C@@H](NC(C)=O)C1CCCCC1)C(C)C)C(=O)O` (stereo partly drawn) (Ac-[Chg]V[Hyp]([CO-X4])[Ac3c(1R,2S-2-vinyl)]-OH), with 5500 nM; and `C=C[C@@H]1C[C@]1(NC(=O)[C@@H]1C[C@@H](OC(=O)N2Cc3ccccc3C2)CN1C(=O)[C@@H](NC(=O)[C@@H](NC(C)=O)C1CCCCC1)C(C)C)C(=O)O` (Ac-[Chg]V[Hyp]([CO-X5])[Ac3c(1R,2S-2-vinyl)]-OH), with 186 nM.
